This note sets out measurements from ChEMBL document CHEMBL4831510, “Novel cannabidiol-carbamate hybrids as selective BuChE inhibitors: Docking-based fragment reassembly for the development of potential therapeutic agents against Alzheimer's disease” (Eur J Med Chem, 2021).

The target of data set [1] is T1, Cholinesterase (Equus caballus, UniProt P81908).
Description: Inhibition of equine serum BuChE using butyrylthiocholine iodide as substrate preincubated with enzyme for 20 mins followed by substrate addition and measured after 20 mins by Ellman's method
The target in data set [2] is Acetylcholinesterase (Electrophorus electricus, UniProt O42275). Put plainly: Inhibition of electric eel AChE using acetylthiocholine iodide as substrate preincubated with enzyme for 20 mins followed by substrate addition and measured after 20 mins by Ellman's method. (Ellman's reagent forms a yellow product with free thiols.)
Chain of Acetylcholinesterase (Electrophorus electricus, UniProt O42275) (O42275 whole entry): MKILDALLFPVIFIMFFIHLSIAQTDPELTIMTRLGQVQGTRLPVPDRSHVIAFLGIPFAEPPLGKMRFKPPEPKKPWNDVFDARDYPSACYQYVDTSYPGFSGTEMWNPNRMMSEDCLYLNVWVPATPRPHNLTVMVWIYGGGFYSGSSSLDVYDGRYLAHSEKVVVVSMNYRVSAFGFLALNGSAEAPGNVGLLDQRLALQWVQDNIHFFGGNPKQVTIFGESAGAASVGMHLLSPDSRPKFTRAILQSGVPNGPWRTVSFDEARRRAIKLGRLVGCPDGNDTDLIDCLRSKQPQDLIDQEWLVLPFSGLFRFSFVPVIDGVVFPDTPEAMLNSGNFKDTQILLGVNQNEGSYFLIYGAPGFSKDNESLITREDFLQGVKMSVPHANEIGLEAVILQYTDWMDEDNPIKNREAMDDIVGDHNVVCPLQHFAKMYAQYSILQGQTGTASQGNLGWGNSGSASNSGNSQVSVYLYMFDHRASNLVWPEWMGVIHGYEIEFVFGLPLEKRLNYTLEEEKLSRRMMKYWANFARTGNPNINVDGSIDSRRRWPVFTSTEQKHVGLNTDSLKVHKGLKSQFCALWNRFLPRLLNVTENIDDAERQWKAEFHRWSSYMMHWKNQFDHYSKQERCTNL
Data set [3] in a line: Antioxidant activity assessed as DPPH radical scavenging activity at 100 uM incubated for 2 hrs by microplate reader method. The data set is classed as functional. A general note: Loss of DPPH colour is used to gauge radical scavenging.
Data set [4] addresses Cholinesterase (Homo sapiens, UniProt P06276).
Description: Inhibition of human serum BuChE using butyrylthiocholine iodide as substrate preincubated with enzyme for 5 mins followed by substrate addition and measured after 5 mins by Ellman's method
Data set [5] addresses T2, Acetylcholinesterase (Homo sapiens, UniProt P22303). Put plainly: Inhibition of human AChE using acetylthiocholine iodide as substrate at 20 uM preincubated with enzyme for 5 mins followed by substrate addition and measured after 5 mins by Ellman's method. As to conditions: time 10.0 min.
Data set [6] can be described thus: Permeability of the compound at 100 ug/ml incubated for 18 hrs by PAMPA. The data set is classed as ADME. As to conditions: dose 100 µg/ml, read-out: permeability. (In PAMPA a lipid-coated filter parts donor from acceptor wells.)
A short description of data set [7]: n-Octanol/PBS partition coefficient, logP of the compound incubated for 48 hrs at pH 7.4 by shake flask method. The data set is classed as physicochemical.
In data set [8] the target is Cholinesterase (Equus caballus) (UniProt P81908). Put plainly: Pseudo-irreversible inhibition of equine serum BuChE assessed as carbamolyation-rate using butyrylthiocholine iodide as substrate preincubated with enzyme for 60 mins prior to substrate addition. The data set is classed as cell-free.
Chain of Cholinesterase (Equus caballus) (P81908 whole entry): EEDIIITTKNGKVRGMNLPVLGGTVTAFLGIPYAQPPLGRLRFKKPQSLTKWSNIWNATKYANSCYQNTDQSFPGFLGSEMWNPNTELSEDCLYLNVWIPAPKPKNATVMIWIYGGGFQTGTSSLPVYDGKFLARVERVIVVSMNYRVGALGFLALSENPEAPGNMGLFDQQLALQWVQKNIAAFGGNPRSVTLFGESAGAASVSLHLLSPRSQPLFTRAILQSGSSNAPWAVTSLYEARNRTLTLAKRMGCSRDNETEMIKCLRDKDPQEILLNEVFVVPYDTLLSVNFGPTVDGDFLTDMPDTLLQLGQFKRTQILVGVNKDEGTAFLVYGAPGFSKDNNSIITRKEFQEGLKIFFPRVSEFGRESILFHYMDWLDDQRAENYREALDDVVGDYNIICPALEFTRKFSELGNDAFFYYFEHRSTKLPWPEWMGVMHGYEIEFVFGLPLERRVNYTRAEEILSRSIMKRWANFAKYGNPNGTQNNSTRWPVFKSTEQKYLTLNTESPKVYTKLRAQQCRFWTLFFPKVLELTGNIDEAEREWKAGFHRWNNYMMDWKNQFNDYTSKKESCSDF
The target is the same in data set [9]. Description: Pseudo-irreversible inhibition of equine serum BuChE assessed as overall carbamolyation-rate using butyrylthiocholine iodide as substrate preincubated with enzyme for 60 mins prior to substrate addition. The data set is classed as cell-free.
For data set [10] the target is unchanged. Put plainly: Pseudo-irreversible inhibition of equine serum BuChE assessed as decarbamolyation-rate using butyrylthiocholine iodide as substrate preincubated with enzyme for 60 mins prior to substrate addition. The data set is classed as cell-free.
Data set [11] deals with Acetylcholinesterase (Electrophorus electricus) (UniProt O42275). Description: Inhibition of electric eel AChE using acetylthiocholine iodide as substrate at 20 uM preincubated with enzyme for 20 mins followed by substrate addition and measured after 20 mins by Ellman's method. As to conditions: time 40.0 min.
Chain of Acetylcholinesterase (Electrophorus electricus) (O42275 24-633 limits assumed): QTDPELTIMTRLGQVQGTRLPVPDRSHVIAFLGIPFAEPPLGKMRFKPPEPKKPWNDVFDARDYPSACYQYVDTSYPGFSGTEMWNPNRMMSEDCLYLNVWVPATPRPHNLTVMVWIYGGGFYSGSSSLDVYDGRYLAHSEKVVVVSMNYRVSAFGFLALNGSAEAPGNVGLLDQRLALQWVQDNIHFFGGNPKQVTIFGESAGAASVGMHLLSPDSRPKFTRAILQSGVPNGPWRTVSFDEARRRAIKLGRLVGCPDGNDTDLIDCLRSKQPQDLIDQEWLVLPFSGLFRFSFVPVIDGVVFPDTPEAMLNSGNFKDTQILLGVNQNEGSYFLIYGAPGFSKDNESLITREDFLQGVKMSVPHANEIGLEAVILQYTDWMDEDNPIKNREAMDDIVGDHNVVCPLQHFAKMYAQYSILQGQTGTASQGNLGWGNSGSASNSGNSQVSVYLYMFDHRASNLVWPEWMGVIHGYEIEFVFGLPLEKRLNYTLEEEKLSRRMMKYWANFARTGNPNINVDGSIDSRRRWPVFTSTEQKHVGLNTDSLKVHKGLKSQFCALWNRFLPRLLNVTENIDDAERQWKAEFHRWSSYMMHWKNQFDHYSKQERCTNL
In data set [12] the test system is Mus musculus. Put plainly: Anti-alzheimer activity against scopolamine-induced cognitive dysfunction mouse model assessed as increase in swimming time in the target quadrant crossing at 10 mg/kg, ip measured after 60 mins by Morris water maze test. The data set is classed as functional, organism-based.
Data set [13] has as its system Mus musculus. Description: Anti-alzheimer activity against oligomerized-amyloid beta (1 to 42) peptide-induced cognitive dysfunction ICR mouse model assessed as reduction in escape latency time at 15 mg/kg, po administered from day 3 to 14 by Morris water maze test. The data set is classed as functional, organism-based. As to conditions: time 12.0 day.
Data set [14] concerns Mus musculus. Description: Anti-alzheimer activity against oligomerized-amyloid beta (1 to 42) peptide-induced cognitive dysfunction ICR mouse model assessed as improvement in alteration performance at 15 mg/kg, po administered from day 3 to 14 by […]. The data set is classed as functional, organism-based. To be noted: time 12.0 day.
In data set [15] the test system is Mus musculus. Description: Anti-alzheimer activity against oligomerized-amyloid beta (1 to 42) peptide-induced cognitive dysfunction ICR mouse model assessed as simplification of trajectories to the platform at 15 mg/kg, po administered from day 3 to 14 by Morris water maze test. The data set is classed as functional, organism-based. As to conditions: time 12.0 day.

Data set [16] relates to Mus musculus. Put plainly: Anti-alzheimer activity against scopolamine-induced cognitive dysfunction mouse model assessed as reduction in escape time latency at 10 mg/kg, ip measured after 60 mins by Morris water maze test. The data set is classed as functional, organism-based.
The species named for data set [17] is Mus musculus. Description: animal or person. To be noted: ICR, po, 288 h, read-out: INH.
Description: Anti-alzheimer activity against oligomerized-amyloid beta (1 to 42) peptide-induced cognitive dysfunction ICR mouse model assessed as reduction in amyloid beta (1 to 42) peptide level in brain at 15 mg/kg, po administered from day 3 to 14 by ELISA
Data set [18] can be described thus: Cytotoxicity against human HepG2 cells assessed as cell viability at 50 uM incubated for 24 hrs by MTT assay. The data set is classed as cell-based. To be noted: read-out: Activity.
Data set [19] relates to Mus musculus. Put plainly: Anti-alzheimer activity against scopolamine-induced cognitive dysfunction mouse model assessed as increase in number of platform crossing at 10 mg/kg, ip measured after 60 mins by Morris water maze test. The data set is classed as functional, organism-based.
The target in data set [20] is T2, Acetylcholinesterase. Put plainly: Inhibition of human AChE using acetylthiocholine iodide as substrate preincubated with enzyme for 5 mins followed by substrate addition and measured after 5 mins by Ellman's method.
Data set [21] has as its target T1, Cholinesterase. Put plainly: Pseudo-irreversible inhibition of equine serum BuChE assessed as binding affinity in an equilibrium state using butyrylthiocholine iodide as substrate preincubated with enzyme for 60 mins prior to substrate addition. The data set is classed as cell-free.
The nature of data set [22]: Cytotoxicity against human HepG2 cells assessed as cell viability at 25 uM incubated for 24 hrs by MTT assay. The data set is classed as cell-based. To be noted: read-out: Activity.
A short description of data set [23]: Cytotoxicity against human L02 cells assessed as cell viability at 50 uM incubated for 24 hrs by MTT assay. The data set is classed as cell-based. As to conditions: read-out: Activity.
The next data set relates to PC-12. Put plainly: Neuroprotective activity against H2O2-induced cytotoxicity in rat PC-12 cells assessed as cell viability at 25 uM pretreated for 3 hrs followed by H2O2 stimulation and measured after 24 hrs by MTT assay (reference value: 38.7%). The data set is classed as functional. To be noted: time 27 hrs, read-out: Activity.

Activity calls are given as the source filed them. The calls are words filed in the database; no cut-off is given here.

T2 sequence (P22303 whole entry): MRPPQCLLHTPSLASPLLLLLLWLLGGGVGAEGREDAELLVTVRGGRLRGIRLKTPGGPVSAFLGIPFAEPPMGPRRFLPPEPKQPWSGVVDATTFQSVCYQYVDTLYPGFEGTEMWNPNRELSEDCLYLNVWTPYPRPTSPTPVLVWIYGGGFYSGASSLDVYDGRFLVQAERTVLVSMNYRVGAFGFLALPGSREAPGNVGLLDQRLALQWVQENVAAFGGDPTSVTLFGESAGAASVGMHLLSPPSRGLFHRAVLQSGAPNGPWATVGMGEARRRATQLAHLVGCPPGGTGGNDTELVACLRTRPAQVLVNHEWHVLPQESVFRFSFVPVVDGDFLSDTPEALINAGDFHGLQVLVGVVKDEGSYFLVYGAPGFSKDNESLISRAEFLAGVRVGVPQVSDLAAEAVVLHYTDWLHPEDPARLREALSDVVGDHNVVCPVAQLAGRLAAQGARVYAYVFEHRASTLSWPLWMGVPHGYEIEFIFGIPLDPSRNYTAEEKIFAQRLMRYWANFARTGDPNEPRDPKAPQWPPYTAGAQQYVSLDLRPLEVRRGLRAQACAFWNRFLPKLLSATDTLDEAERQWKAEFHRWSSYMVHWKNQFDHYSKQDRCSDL
T1 sequence (P81908 whole entry): as the sequence (P81908 whole entry) above
Chain of Cholinesterase (Homo sapiens, UniProt P06276) (P06276 whole entry): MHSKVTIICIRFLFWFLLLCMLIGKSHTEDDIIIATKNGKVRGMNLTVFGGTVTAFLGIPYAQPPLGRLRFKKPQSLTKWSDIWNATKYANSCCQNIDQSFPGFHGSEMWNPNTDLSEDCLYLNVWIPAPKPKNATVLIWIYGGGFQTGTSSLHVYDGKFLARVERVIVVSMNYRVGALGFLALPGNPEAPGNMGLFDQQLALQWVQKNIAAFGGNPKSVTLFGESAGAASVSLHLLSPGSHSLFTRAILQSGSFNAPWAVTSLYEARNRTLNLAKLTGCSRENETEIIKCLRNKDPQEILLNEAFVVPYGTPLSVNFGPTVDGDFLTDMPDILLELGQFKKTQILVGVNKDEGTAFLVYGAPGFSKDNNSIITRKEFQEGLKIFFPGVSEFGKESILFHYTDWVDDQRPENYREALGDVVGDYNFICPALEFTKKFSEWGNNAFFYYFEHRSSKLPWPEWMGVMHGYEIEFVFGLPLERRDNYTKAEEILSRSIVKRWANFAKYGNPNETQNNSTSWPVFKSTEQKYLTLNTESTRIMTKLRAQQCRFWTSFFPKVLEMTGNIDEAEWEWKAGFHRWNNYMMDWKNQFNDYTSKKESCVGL

Consider `C=C(C)[C@@H]1CCC(C)=C[C@H]1c1c(O)cc(CCCCC)cc1OC(=O)N(C)Cc1cccc(F)c1`, for which the values for the IC50 against Cholinesterase [1] and at Acetylcholinesterase [2] were 4870 nM and “Not Active”, respectively. Besides, in [3], the inhibition result is “inactive”.

Regarding `C=C(C)[C@@H]1CCC(C)=C[C@H]1c1c(O)cc(CCCCC)cc1OC(=O)N1CCOCC1`, the IC50 against Cholinesterase [1] is 1890 nM; at Acetylcholinesterase [2] it was “Not Active”. In addition, the inhibition in data set [3] is 21.1%.

As for `C=C(C)[C@@H]1CCC(C)=C[C@H]1c1c(OC(=O)N2CCOCC2)cc(CCCCC)cc1OC(=O)N1CCOCC1`, the half-maximal inhibitory concentration (IC50) is 3360 nM against Cholinesterase [1] and “Not Active” at Acetylcholinesterase [2]. Moreover, the inhibition in data set [3] came out at 2%.

Turning to `C=C(C)[C@@H]1CCC(C)=C[C@H]1c1c(O)cc(CCCCC)cc1OC(=O)N(C)Cc1cccc(Br)c1`, the figures for the IC50 against Cholinesterase [1] and at Acetylcholinesterase [2] were 2400 nM and “Not Active”, respectively. The inhibition result in data set [3] was “inactive”.

For the molecule `C=C(C)[C@@H]1CCC(C)=C[C@H]1c1c(O)cc(CCCCC)cc1OC(=O)N(C)Cc1ccc(F)cc1`, the IC50 is 69 nM on Cholinesterase [1] and “Not Active” at Acetylcholinesterase [2]. Moreover, in data set [3], the inhibition was determined as 27%.

As to `C=C(C)[C@@H]1CCC(C)=C[C@H]1c1c(O)cc(CCCCC)cc1OC(=O)N(C)CC`, the IC50 against Cholinesterase [1] stood at 77 nM; on Cholinesterase [4], 1510 nM; at Acetylcholinesterase [2] (read-out: IC50) it was 15000 nM. Also, the inhibition at Acetylcholinesterase [5] is 13.2%; in data set [3], 31.1%. Moreover, in data set [6], the Papp at 18 h, 100 ug/ml worked out at 18.8 ×10⁻⁶ cm/s. The pH-dependent lipophilicity (logD) at 48 h in data set [7] was 1.92.

For `CCN(C)C(=O)Oc1cccc([C@H](C)N(C)C)c1`, the figures for the K in data set [8], in data set [9] and in data set [10] were 0.3 min⁻¹, 0.26 µM/min and 4.97 10^3/min, respectively. Besides, the inhibition at Acetylcholinesterase [5] was 12.2%; in data set [3], 2.5%.

Consider `C=C(C)[C@@H]1CCC(C)=C[C@H]1c1c(OC(=O)N(C)Cc2ccccc2)cc(CCCCC)cc1OC(=O)N(C)Cc1ccccc1`, for which the half-maximal inhibitory concentration (IC50) against Cholinesterase [1] was 380 nM; at Acetylcholinesterase [2], “Not Active”. Further, in data set [3], the inhibition was determined as 41.8%.

For `C=C(C)[C@@H]1CCC(C)=C[C@H]1c1c(O)cc(CCCCC)cc1OC(=O)N(C)C`, at Cholinesterase [1], half-maximal inhibition (IC50) required 200 nM. Moreover, the figures for the inhibition in data set [11] and in data set [3] were 36.1% and 27.1%, respectively.

As for `C=C(C)[C@@H]1CCC(C)=C[C@H]1c1c(OC(=O)N(C)CC)cc(CCCCC)cc1OC(=O)N(C)CC`, the figures for the IC50 against Cholinesterase [1] and on Acetylcholinesterase [2] were 290 nM and “Not Active”, respectively. Further, in [3], the inhibition was 0.1%. The logD at 48 h in data set [7] is 2.57.

Turning to `COc1cc2c(cc1OC)C(=O)C(CC1CCN(Cc3ccccc3)CC1)C2` (centres undefined) [DONEPEZIL], the result in the data set with Mus musculus [12], with Mus musculus [13], in the data set with Mus musculus [14], in the data set on Mus musculus [15], in the data set on Mus musculus [16] and in the data set with Mus musculus [19] was Active. The inhibition in vivo at 15 mg/kg in the data set filed under Mus musculus [17] came out at 19%. In [3], the inhibition worked out at 1.3%. In addition, in data set [18], the viability at 24 h, 50 µM worked out at 91.1%.

`C=C(C)[C@@H]1CCC(C)=C[C@H]1c1c(O)cc(CCCCC)cc1OC(=O)N1CCCCC1` showed an IC50 at Cholinesterase [1] of 530 nM. Further, the inhibition in data set [11] amounted to 30.5%; in data set [3], 46.8%.

Turning to `O=C1O[C@H]([C@@H](O)CO)C(O)=C1O`, the inhibition in [3] turned out to be 86.2%.

Turning to `C=C(C)[C@@H]1CCC(C)=C[C@H]1c1c(O)cc(CCCCC)cc1OC(=O)N(C)Cc1ccc(Br)cc1`, the IC50 result against Acetylcholinesterase [20] is “Not Active”; against Cholinesterase [1], 7.3 nM; on Cholinesterase [4] it was 2150 nM; against Acetylcholinesterase [2], “Not Active”. Further, the inhibition in data set [3] was found to be 41.8%. Moreover, in data set [7], the logD at 48 h came to 2.37.

`C=C(C)[C@@H]1CCC(C)=C[C@H]1c1c(O)cc(CCCCC)cc1OC(=O)N1CCCC1`: the results for the K in data set [8], in data set [9] and in data set [10] were 0.33 min⁻¹, 0.94 µM/min and 5.13 10^3/min, respectively. Besides, the results for the half-maximal inhibitory concentration (IC50) on Cholinesterase [1] and against Acetylcholinesterase [2] were 390 nM and “Not Active”, respectively. For the same molecule, the inhibition in data set [3] is 4.9%. For the same molecule, the dissociation constant (Kd) on Cholinesterase [21] was 350 nM.

`C=C(C)[C@@H]1CCC(C)=C[C@H]1c1c(O)cc(CCCCC)cc1O` [CANNABIDIOL]: the viability at 24 h, 25 µM in [22] turned out to be 20.1%. Moreover, the viability at 24 h, 50 µM in data set [23] amounted to 92.6%. For the same molecule, the half-maximal inhibitory concentration (IC50) on Cholinesterase [1] was found to be 670 nM; at Acetylcholinesterase [2] (read-out: IC50), 17100 nM. For the same molecule, the inhibition in [3] amounted to 66.7%. In addition, the Papp at 18 h, 100 ug/ml in data set [6] amounted to 22.7 ×10⁻⁶ cm/s. Also, the viability at 25 µM with PC-12 was determined as 17.9%. In data set [7], this molecule returned a logD at 48 h of 1.67.

In turn, `C=C(C)[C@@H]1CCC(C)=C[C@H]1c1c(O)cc(CCCCC)cc1OC(=O)N(CC)CC` displayed a 50% inhibitory concentration (IC50) at Cholinesterase [1] of 370 nM. Further, the inhibition in data set [11] was 28.4%; in [3], 40.4%.

On to `C=C(C)[C@@H]1CCC(C)=C[C@H]1c1c(O)cc(CCCCC)cc1OC(=O)N(C)Cc1ccccc1`, for which the figures for the IC50 against Cholinesterase [1] and at Acetylcholinesterase [2] were 46 nM and “Not Active”, respectively. Moreover, the inhibition in data set [3] came out at 21.1%. This molecule gave a logD at 48 h in data set [7] of 2.2.

Regarding `C=C(C)[C@@H]1CCC(C)=C[C@H]1c1c(O)cc(CCCCC)cc1OC(=O)N(C)Cc1cccc(Cl)c1`, the IC50 on Cholinesterase [1] is 2820 nM; against Acetylcholinesterase [2] it was “Not Active”. In addition, the inhibition result in data set [3] is “inactive”.

As for `C=C(C)[C@@H]1CCC(C)=C[C@H]1c1c(OC(=O)N2CCCC2)cc(CCCCC)cc1OC(=O)N1CCCC1`, the IC50 at Cholinesterase [1] was 530 nM; on Acetylcholinesterase [2], “Not Active”. In addition, in data set [3], the inhibition worked out at 17.8%.

One may read the IC50 as the concentration that inhibits the measured activity by half. For orientation: inhibition means the drop in the measured response relative to a control, in per cent. As usually defined, the logD is lipophilicity at a set pH, counting ionised and neutral species. Lower therefore signals lower lipophilicity. For orientation: Kd means the equilibrium constant for the complex coming apart.
